Read-outs that look alike come from different tables or passages of the source.
Key:
CYP2E1 = CYP2E1 (Homo sapiens (Human), UniProt P05181); experiment: CYP2E1 Vivid blue substrate O-dealkylation inhibition; format: biochemical
P450 2A6dH = P450 2A6dH (Homo sapiens (Human), UniProt P11509, INS494HHHH); experiment: Difference spectra of test compounds with N-terminal truncated CYP2A6; settings: for λmax / λmin: difference spectrum; for binding type: difference spectrum with truncated CYP2A6
Protocol: Subsequently, test compound (in 100% ethanol, 10 μM) was added to both the cuvettes. The maximal ethanol concentration used was 2%. The difference spectra were obtained after the system reached equilibrium (3 min). All spectra were recorded at 25° C.

CYP2D6 = CYP2D6 (Homo sapiens (Human), UniProt P10635); experiment: CYP2D6 Vivid blue substrate O-dealkylation inhibition; format: biochemical
CYP2D6, sequence (P10635 whole entry): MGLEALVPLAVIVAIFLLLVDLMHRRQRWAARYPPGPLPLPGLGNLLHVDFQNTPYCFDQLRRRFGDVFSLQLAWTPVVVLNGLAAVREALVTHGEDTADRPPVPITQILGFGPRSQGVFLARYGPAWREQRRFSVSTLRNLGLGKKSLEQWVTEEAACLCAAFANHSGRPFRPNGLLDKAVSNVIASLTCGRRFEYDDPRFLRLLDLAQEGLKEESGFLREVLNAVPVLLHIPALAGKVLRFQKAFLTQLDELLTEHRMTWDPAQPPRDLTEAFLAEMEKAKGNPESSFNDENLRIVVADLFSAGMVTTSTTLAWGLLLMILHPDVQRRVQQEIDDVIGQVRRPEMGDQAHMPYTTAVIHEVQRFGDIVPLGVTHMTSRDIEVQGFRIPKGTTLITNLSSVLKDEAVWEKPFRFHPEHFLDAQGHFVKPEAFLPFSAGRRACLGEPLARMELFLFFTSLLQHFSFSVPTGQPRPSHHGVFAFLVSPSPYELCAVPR

in vitro = settings: human, microsomes, pH 7.4
[1] = Mouse liver microsome stability assay; settings: for half-life at 40 μM: mouse, pH 7.4; for MLM t1/2: 40 μM test compound
Protocol: The residue was reconstituted in methanol (200 μL), centrifuged at 13,000 rpm for 5 min and the supernatant was analyzed by high-performance liquid chromatography with an Axxi-chrom (straight-phase) silica column (4.6 mm×250 mm, 5 μm) or with a Supelco (reverse-phase) HS F5 pentafluorophenyl column (4.6 mm×250 mm, 5 μm).

[2] = target: CYP3A4 relative to CYP2A6 (Homo sapiens (Human), UniProt P08684); experiment: in vitro; settings: human, pH 7.5
CYP3A4 relative to CYP2A6, sequence (P08684 whole entry): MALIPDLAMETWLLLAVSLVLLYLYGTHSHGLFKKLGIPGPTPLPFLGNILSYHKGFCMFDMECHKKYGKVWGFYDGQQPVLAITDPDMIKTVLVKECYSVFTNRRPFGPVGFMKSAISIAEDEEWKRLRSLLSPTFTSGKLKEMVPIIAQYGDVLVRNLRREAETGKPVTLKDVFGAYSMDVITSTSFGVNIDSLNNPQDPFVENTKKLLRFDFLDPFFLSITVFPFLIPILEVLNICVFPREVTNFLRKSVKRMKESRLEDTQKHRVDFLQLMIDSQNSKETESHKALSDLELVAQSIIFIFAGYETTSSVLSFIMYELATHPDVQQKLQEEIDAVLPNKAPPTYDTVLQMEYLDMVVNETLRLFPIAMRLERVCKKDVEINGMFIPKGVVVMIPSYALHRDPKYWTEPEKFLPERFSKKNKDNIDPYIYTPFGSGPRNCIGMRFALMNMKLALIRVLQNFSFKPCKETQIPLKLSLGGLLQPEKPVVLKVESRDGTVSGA

human CYP2A6 [3] = target: T1, human CYP2A6 (Homo sapiens (Human), UniProt P11509)
T1 sequence (P11509 whole entry): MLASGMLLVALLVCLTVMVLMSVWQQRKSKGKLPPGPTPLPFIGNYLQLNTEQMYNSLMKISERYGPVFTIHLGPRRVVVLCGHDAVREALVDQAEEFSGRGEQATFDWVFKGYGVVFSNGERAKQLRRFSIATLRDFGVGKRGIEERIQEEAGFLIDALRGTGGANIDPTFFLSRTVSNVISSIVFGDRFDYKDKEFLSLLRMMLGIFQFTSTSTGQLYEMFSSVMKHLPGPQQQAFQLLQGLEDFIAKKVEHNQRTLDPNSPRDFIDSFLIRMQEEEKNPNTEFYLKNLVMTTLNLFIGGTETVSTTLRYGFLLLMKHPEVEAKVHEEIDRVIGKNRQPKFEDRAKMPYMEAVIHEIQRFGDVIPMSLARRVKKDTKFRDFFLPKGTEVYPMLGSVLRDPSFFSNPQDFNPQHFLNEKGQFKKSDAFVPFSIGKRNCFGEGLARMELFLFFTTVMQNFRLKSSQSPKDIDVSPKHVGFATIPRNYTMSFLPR

male Wistar rats = experiment: Nicotine self-administration in nicotine-addicted rats; format: in vivo, rat
CYP2A13 [4] = target: T2, CYP2A13 (Homo sapiens (Human), UniProt Q16696); settings: cited from earlier work
Microsomal Human CYP2A6 = Microsomal Human CYP2A6 (Homo sapiens (Human), UniProt P11509); experiment: Microsomal human CYP2A6-mediated nicotine oxidase activity
Microsomal Human CYP2A6, sequence (P11509 whole entry): as above
Protocol: For each determination, cold microsomes (of predetermined CYP2A6 activity) was added to the NADPH-generating system containing 50 mM Tris (pH=7.4) and DETAPAC (to prevent metal-catalyzed autooxidation) and inhibitor. Because rat liver cytosol has little CYP2A6 activity and high levels of aldehyde oxidase, 0.2 mg/incubation was used to quantitatively convert the nicotine iminium ion to cotinine. […] For initial evaluation of a large number of samples, [^3]H-nicotine was used in a TLC/radiometric format. […] Quantification of scrapped bands was by scintillation counting.

human CYP2A6 [5] = target: T1, human CYP2A6; experiment: CYP2A6 mediated coumarin 7-hydroxylation inhibition
CYP2A13 [6] = target: T2, CYP2A13; experiment: in vitro
mouse CYP2A5 = mouse CYP2A5 (Mus musculus (Mouse), UniProt P20852); experiment: Inhibition of mouse CYP2A5; format: biochemical; settings: read-out: IC50 mCYP2A5
[7] = target: CYP2E1 relative to CYP2A6 (Homo sapiens (Human), UniProt P05181); experiment: CYP2E1 Vivid blue substrate O-dealkylation inhibition; format: biochemical; settings: human, recombinant CYP2E1 BACULOSOMES, pH 8, probe Vivid blue substrate (10 μM), O-dealkylation; read-out: 2E1/2A6 selectivity ratio (IC50 CYPX/IC50 CYP2A6)
CYP2E1 relative to CYP2A6, sequence (P05181 whole entry): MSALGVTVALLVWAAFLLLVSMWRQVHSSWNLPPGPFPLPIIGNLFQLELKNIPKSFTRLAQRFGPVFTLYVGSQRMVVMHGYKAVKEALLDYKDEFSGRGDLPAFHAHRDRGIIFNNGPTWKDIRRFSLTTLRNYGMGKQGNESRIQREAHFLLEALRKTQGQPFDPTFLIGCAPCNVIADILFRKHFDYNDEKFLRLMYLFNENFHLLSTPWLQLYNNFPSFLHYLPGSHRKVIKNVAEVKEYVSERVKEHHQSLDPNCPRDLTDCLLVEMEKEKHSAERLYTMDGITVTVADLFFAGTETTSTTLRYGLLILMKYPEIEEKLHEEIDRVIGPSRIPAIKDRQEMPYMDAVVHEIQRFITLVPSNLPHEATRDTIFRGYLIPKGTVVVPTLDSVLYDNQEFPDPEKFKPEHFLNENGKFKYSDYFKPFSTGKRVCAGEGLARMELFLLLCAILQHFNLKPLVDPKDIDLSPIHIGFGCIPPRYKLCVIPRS

CYP2C19 = CYP2C19 (Homo sapiens (Human), UniProt P33261); experiment: CYP2C19 Vivid blue substrate O-dealkylation inhibition; format: biochemical
CYP2C19, sequence (P33261 whole entry): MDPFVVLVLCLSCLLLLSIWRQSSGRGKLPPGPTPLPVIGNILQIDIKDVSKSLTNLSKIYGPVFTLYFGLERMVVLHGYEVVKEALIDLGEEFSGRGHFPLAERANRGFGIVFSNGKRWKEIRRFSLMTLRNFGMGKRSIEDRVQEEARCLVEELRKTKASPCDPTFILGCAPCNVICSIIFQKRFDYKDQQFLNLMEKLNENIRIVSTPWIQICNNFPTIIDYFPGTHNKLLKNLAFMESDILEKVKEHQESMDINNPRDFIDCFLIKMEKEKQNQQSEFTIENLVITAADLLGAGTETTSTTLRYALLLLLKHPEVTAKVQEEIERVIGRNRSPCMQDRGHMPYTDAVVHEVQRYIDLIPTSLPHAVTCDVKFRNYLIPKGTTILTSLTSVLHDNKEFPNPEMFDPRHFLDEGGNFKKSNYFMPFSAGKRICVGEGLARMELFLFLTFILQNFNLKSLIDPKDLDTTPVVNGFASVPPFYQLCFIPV

[8] = target: CYP2C19 relative to CYP2A6 (Homo sapiens (Human), UniProt P33261); experiment: as above; format: biochemical; settings: human, recombinant CYP2C19 BACULOSOMES, pH 8, probe Vivid blue substrate (10 μM), O-dealkylation; read-out: 2C19/2A6 selectivity ratio (IC50 CYPX/IC50 CYP2A6)
CYP2C9 = CYP2C9 (Homo sapiens (Human), UniProt P11712); experiment: CYP2C9 Vivid blue substrate O-dealkylation inhibition; format: biochemical
CYP2C9, sequence (P11712 whole entry): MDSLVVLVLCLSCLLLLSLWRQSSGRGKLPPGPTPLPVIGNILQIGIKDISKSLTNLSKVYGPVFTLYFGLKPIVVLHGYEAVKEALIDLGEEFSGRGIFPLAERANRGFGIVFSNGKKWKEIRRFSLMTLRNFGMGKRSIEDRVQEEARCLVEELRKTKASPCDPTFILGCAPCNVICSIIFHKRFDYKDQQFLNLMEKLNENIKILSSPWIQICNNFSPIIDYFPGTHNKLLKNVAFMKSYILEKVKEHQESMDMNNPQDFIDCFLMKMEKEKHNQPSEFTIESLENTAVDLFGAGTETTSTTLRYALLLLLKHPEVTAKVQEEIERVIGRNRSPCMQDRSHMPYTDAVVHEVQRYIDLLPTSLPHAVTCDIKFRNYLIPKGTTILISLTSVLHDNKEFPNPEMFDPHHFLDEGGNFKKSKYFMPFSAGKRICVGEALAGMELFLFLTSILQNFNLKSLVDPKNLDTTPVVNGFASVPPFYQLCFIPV

[9] = target: CYP2C9 relative to CYP2A6 (Homo sapiens (Human), UniProt P11712); experiment: as above; format: biochemical; settings: human, recombinant CYP2C9 BACULOSOMES, pH 8, probe Vivid blue substrate (10 μM), O-dealkylation; read-out: 2C9/2A6 selectivity ratio (IC50 CYPX/IC50 CYP2A6)
CYP2C9 relative to CYP2A6, sequence (P11712 whole entry): as above

CYP3A4 = CYP3A4 (Homo sapiens (Human), UniProt P08684); experiment: in vitro
CYP3A4, sequence (P08684 whole entry): as the sequence (P08684 whole entry) above

[10] = target: CYP2B6 relative to CYP2A6 (Homo sapiens (Human), UniProt P20813); experiment: CYP2B6 Vivid blue substrate O-dealkylation inhibition; format: biochemical; settings: human, recombinant CYP2B6 BACULOSOMES, pH 8, probe Vivid blue substrate (5 μM), O-dealkylation; read-out: 2B6/2A6 selectivity ratio (IC50 CYPX/IC50 CYP2A6)
CYP2B6 relative to CYP2A6, sequence (P20813 whole entry): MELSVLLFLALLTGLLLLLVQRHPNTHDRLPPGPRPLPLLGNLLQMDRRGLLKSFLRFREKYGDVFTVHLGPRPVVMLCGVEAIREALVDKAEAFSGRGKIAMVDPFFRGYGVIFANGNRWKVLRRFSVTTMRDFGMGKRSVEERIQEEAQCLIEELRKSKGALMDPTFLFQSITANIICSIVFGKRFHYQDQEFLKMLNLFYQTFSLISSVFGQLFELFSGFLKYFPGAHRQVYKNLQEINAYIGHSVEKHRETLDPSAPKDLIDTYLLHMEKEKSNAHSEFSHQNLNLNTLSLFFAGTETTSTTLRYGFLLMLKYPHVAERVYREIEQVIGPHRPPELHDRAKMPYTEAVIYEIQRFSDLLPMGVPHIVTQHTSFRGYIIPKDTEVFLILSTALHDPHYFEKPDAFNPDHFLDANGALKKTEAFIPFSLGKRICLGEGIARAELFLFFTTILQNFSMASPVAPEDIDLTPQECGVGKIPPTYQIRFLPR

CYP2B6 = CYP2B6 (Homo sapiens (Human), UniProt P20813); experiment: as above; format: biochemical
CYP2B6, sequence (P20813 whole entry): as above

[11] = target: CYP2D6 relative to CYP2A6 (Homo sapiens (Human), UniProt P10635); experiment: CYP2D6 Vivid blue substrate O-dealkylation inhibition; format: biochemical; settings: human, recombinant CYP2D6 BACULOSOMES, pH 8, probe Vivid blue substrate (10 μM), O-dealkylation; read-out: 2D6/2A6 selectivity ratio (IC50 CYPX/IC50 CYP2A6)
CYP2D6 relative to CYP2A6, sequence (P10635 whole entry): as the sequence (P10635 whole entry) above

[12] = Human liver microsome stability assay; settings: human liver microsomes; for half-life at 40 μM: human, pH 7.4
[13] = target: Ach binding protein (AchBP) (Lymnaea stagnalis (Great pond snail) (Helix stagnalis), UniProt P58154)
Ach binding protein (AchBP), sequence (P58154 20-229 limits assumed): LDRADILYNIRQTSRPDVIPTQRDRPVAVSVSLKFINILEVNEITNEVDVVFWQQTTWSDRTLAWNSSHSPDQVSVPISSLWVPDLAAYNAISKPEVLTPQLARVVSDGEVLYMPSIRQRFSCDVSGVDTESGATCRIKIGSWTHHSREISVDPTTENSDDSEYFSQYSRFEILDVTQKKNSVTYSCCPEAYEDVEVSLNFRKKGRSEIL
From the text: To examine the degree of interaction with the nicotinic acetylcholine receptor, we examined the binding interaction of the synthetic inhibitors with the Ach binding protein (AchBP) from the fresh water snail (Table 3).

[14] = target: Acetylcholine Binding Protein (Lymnaea stagnalis (Great pond snail) (Helix stagnalis), UniProt P58154); design: species or system Lymnaca stagnalis
Acetylcholine Binding Protein, sequence (P58154 20-229 limits assumed): as above

[15] = Table 4, unit inferred, read-out: 2E1 IC50 ± SD
[16] = Table 4, unit inferred, read-out: 2D6 IC50 ± SD
[17] = Table 4, unit inferred, read-out: 2C19 IC50 ± SD
[18] = Table 4, unit inferred, read-out: 2C9 IC50 ± SD
[19] = Table 4, unit inferred, read-out: 2B6 IC50 ± SD
[20] = read-out: 2A6 IC50 ± SD, Table 4, unit not given (same data in Table 1 in μM)

CYP2E1, sequence (P05181 whole entry, the tested form may be a part): as the sequence (P05181 whole entry) above
P450 2A6dH, sequence (P11509 other isoform, or with tags, fused parts or gaps 1-28 replaced by MAKKTS/ins HHHH behind 494): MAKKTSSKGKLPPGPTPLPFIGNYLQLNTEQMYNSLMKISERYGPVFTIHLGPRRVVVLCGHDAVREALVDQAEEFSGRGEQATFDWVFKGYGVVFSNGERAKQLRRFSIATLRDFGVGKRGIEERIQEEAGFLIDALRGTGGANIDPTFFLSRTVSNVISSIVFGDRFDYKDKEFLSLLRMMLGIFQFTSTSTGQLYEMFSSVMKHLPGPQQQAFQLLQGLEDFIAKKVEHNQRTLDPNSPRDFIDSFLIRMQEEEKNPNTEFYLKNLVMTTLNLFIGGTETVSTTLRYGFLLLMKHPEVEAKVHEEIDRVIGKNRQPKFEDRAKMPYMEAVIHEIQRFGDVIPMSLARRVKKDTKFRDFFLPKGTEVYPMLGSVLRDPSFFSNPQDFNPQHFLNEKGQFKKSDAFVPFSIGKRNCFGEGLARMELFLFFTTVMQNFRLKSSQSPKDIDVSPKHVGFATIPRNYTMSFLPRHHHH

NCc1ccc(-c2cccnc2)s1 [Compound 1a]
IC50 (CYP2E1; [15]): 40.2 ± 18.1 µM | λmax (P450 2A6dH): 428 nm | λmin (P450 2A6dH): 409 nm | binding type (P450 2A6dH): Type II | IC50 (CYP2D6; [16]): 169 ± 17 µM | half-life (in vitro): 0.65 h | half-life at 40 μM ([1]; microsomes): 1 h

NCc1ccc(-c2cccnc2)o1 [Compound 2]
selectivity ratio at 30 min [2]: 174 | CYP2A6 inhibition (in words) (human CYP2A6 [3]): significant inhibition | IC50 (human CYP2A6 [3]; human, pH 7.5): 0.268 ± 0.021 µM | in vivo activity against nicotine self-administration (in words) (male Wistar rats; nicotine addicted rats): significant in vivo activity | decrease of nicotine self-administration (male Wistar rats; rat, day 50, dihydrochloride salts in sterile saline, compound 2 16 mg/kg, compound 14 15 mg/kg): 70%

COc1c2occc2cc2ccc(=O)oc12 [methoxypsoralen (8-methoxypsoralen), 8-methoxypsoralen]
Ki (CYP2A13 [4]): 0.11 µM

BrCC1CCC(c2cccnc2)O1 (stereo not drawn) [Compound 32]
IC50 (Microsomal Human CYP2A6): 0.36 ± 0.18 µM

CCC1CCC(c2cccnc2)O1 (stereo not drawn) [Compound 44]
IC50 (human CYP2A6 [5]; read-out: CYP2A6 IC50, coumarin 7-hydroxylation): 13.6 ± 3.48 µM | IC50 (Microsomal Human CYP2A6): 0.02 ± 0.02 µM | inhibition of microsomal nicotine oxidase (in words) (Microsomal Human CYP2A6): quite potent

NCc1ccc(-c2cccnc2)o1 [TD-II-063]
inhibition at 1 µM (CYP2A13 [6]): 29% | IC50 (mouse CYP2A5): 0.6 µM

CN(C)Cc1ccc(-c2cccnc2)s1 [Compound 1c]
selectivity ratio at 40 min [7]: > 3 | IC50 (CYP2E1; [15]): > 400 µM | IC50 (CYP2C19; [17]): 106 ± 18 µM | selectivity ratio at 40 min [8]: 0.8 | IC50 (CYP2C9; [18]): 206 ± 23 µM | selectivity ratio at 40 min [9]: 1.5 | IC50 (CYP3A4): 219 ± 23 µM | selectivity ratio at 30 min [2]: 1.6 | selectivity ratio at 40 min [10]: > 3 | IC50 (CYP2B6; [19]): > 400 µM | IC50 (human CYP2A6 [5]; [20]): 133 ± 21 µM | λmax (P450 2A6dH): 428 nm | λmin (P450 2A6dH): 411 nm | binding type (P450 2A6dH): Type II | IC50 (CYP2D6; [16]): 28.7 ± 4.1 µM | selectivity ratio at 40 min [11]: 0.2 | HLM t1/2 ([12]; 40 μM test compound): Stable^a | half-life at 40 μM ([1]; mouse liver microsomes): 5.72 h

NCC1CCC(c2cccnc2)O1 (racemic) [Compound 38]
Selectivity ratio (IC50 CYPX/IC50 CYP2A6) 2E1/2A6 (CYP2E1; human CYP2E1 versus human CYP2A6): 21 | IC50 (CYP2E1; read-out: IC50 ± SD 2E1, insect cell microsomes expressing CYP2E1, 0.2M potassium phosphate buffer, mean of at least 3 determinations ± SD): 77.5 ± 14.6 µM | Selectivity ratio (IC50 CYPX/IC50 CYP2A6) 2C19/2A6 (CYP2C19; human CYP2C19 versus human CYP2A6): 62 | IC50 (CYP2C19; read-out: IC50 ± SD 2C19, insect cell microsomes expressing CYP2C19, 0.2M potassium phosphate buffer, mean of at least 3 determinations ± SD): 233 ± 21 µM | Selectivity ratio (IC50 CYPX/IC50 CYP2A6) 2C9/2A6 (CYP2C9; human CYP2C9 versus human CYP2A6): 56 | IC50 (CYP2C9; read-out: IC50 ± SD 2C9, insect cell microsomes expressing CYP2C9, 0.2M potassium phosphate buffer, mean of at least 3 determinations ± SD): 208 ± 21 µM | IC50 (CYP3A4; human, microsomes, pH 7.5): 77.5 ± 14.6 µM | Selectivity ratio (IC50 CYPX/IC50 CYP2A6) 3A4/2A6 (CYP3A4; human, pH 7.5): 21 | Selectivity ratio (IC50 CYPX/IC50 CYP2A6) 2B6/2A6 (CYP2B6; human CYP2B6 versus human CYP2A6): 69 | IC50 (CYP2B6; read-out: IC50 ± SD 2B6, insect cell microsomes expressing CYP2B6, 0.2M potassium phosphate buffer, mean of at least 3 determinations ± SD): 256 ± 29 µM | CYP2A6 inhibition (in words) (human CYP2A6 [3]): significantly diminished | binding to the AchBP (in words) ([13]; fluorescence quenching): modest binding avidity | AchBP ([13]; intrinsic fluorescence quenching, 20 nM AchBP): + | Selectivity ratio (IC50 CYPX/IC50 CYP2A6) 2D6/2A6 (CYP2D6; human CYP2D6 versus human CYP2A6): 53 | IC50 (CYP2D6; read-out: IC50 ± SD 2D6, insect cell microsomes expressing CYP2D6, 0.2M potassium phosphate buffer, mean of at least 3 determinations ± SD): 197 ± 21 µM | IC50 (Microsomal Human CYP2A6): 5.21 ± 1.68 µM

CNCc1ccc(-c2cccnc2)s1 [Compound 1b]
IC50 (CYP2E1; [15]): > 400 µM | IC50 (CYP2C19; [17]): 59.8 ± 6.5 µM | IC50 (CYP2C9; [18]): 67.7 ± 3.7 µM | IC50 (CYP3A4): > 400 µM | IC50 (CYP2B6; [19]): > 400 µM | IC50 (human CYP2A6 [5]; [20]): 1.1 ± 0.13 µM | λmax (P450 2A6dH): 430 nm | λmin (P450 2A6dH): 410 nm | binding type (P450 2A6dH): Type II | IC50 (CYP2D6; [16]): 113 ± 19 µM | half-life at 40 μM [12]: 1.6 h | MLM t1/2 ([1]; mouse liver microsomes): Stable^a

NC1CC1c1cccnc1 (stereo not drawn) [2-(pyridin-3-yl)cyclopropanamine]
% of Control [14]: 8%

CNCc1ccc(-c2cccnc2)o1 [Compound 2b]
selectivity ratio at 40 min [7]: > 250 | IC50 (CYP2E1; [15]): > 400 µM | IC50 (CYP2C19; [17]): 30.6 ± 4.1 µM | selectivity ratio at 40 min [8]: 19 | IC50 (CYP2C9; [18]): 76.1 ± 9.1 µM | selectivity ratio at 40 min [9]: 48 | IC50 (CYP3A4): > 400 µM | selectivity ratio at 30 min [2]: > 250 | selectivity ratio at 40 min [10]: 224 | IC50 (CYP2B6; [19]): 358 ± 22 µM | IC50 (human CYP2A6 [5]; [20]): 1.6 ± 0.34 µM | λmax (P450 2A6dH): 431 nm | λmin (P450 2A6dH): 411 nm | binding type (P450 2A6dH): Type II | IC50 (CYP2D6; [16]): 90.6 ± 7.8 µM | selectivity ratio at 40 min [11]: 57 | half-life at 40 μM [12]: 1.1 h | MLM t1/2 ([1]; mouse liver microsomes): Stable^a
